Laboratory results published in patent publication US6419907B1, “Use of cupric complex of 3,5-disopropylsalicylic acid by way of a cosmetic product and cosmetic compositions containing this compound for protecting the human epidermis against UV radiation” (L'Oreal, priority 1987, dated 2002).

System: skin
Test: application on the skin against injuries caused by solar/UV radiation
Format: in vivo
Details: persists in the presence of sunscreens

For `CC(C)c1cc2c(c(C(C)C)c1)[O][Cu]1([O]C2=O)[O]C(=O)c2cc(C(C)C)cc(C(C)C)c2[O]1` [copper (II) bis(3,5-diisopropylsalicylate)], the “intensity of the solar erythema” value was “reduced” and the “number of degraded keratinocytes” value was “reduced”.
